{
  "source": "patent US20240122962A1",
  "about": "“PHARMACEUTICAL COMPOSITION FOR USE IN THE PREVENTION OR TREATMENT OF A CONDITION ASSOCIATED WITH A REDUCTION IN THE NUMBER OF LACTOBACILLI IN THE VAGINA” (priority 2020, published 2024)",
  "origin": "cited, not measured here",
  "test_system": "bacterial vaginosis (BV)",
  "conditions": "7-day oral treatment, after 1 month",
  "data": [
    {"smiles": "Cc1ncc([N+](=O)[O-])n1CCO", "note": "[Metronidazole, metronidazole]", "values": [
      {"measurement": "cure rate", "value": "80-90%"}
    ]}
  ]
}
